Among the data in ChEMBL document CHEMBL4627274, “Optimized plant compound with potent anti-biofilm activity across gram-negative species” (Bioorg Med Chem, 2020) are inhibition, MBIC50 and INH values, retold here.

Type in all cases: functional
For experiment [1], the system named is Pseudomonas aeruginosa. The experiment is described as follows: Inhibition of swarming motility of Pseudomonas aeruginosa HONKR at 16 ug/mL incubated for 16 to 20 hrs relative to control.
The test system of experiment [2] is Escherichia coli. The experiment is described as follows: Inhibition of swarming motility of Escherichia coli PY31 at 16 ug/mL incubated for 16 to 20 hrs relative to control.
In experiment [3] the test system is Escherichia coli. The experiment is described as follows: Antibiofilm activity against Escherichia coli UTI89 incubated for 2 days at 23 degC followed by 1 day incubation at RT.
Experiment [4] concerns Pseudomonas aeruginosa. Description: Inhibition of swarming motility of Pseudomonas aeruginosa clinical isolates incubated for 16 to 20 hrs.
The subject of experiment [5] is Burkholderia cepacia. Description: Inhibition of swarming motility of Burkholderia cepacia clinical isolates incubated for 16 to 20 hrs.
For experiment [6], the system named is Salmonella enterica. Description: Inhibition of swarming motility of Salmonella enterica clinical isolates incubated for 16 to 20 hrs.
Experiment [7] relates to Escherichia coli. Description: Inhibition of swarming motility of Escherichia coli clinical isolates incubated for 16 to 20 hrs.

For `CC1(C)CC[C@]2(C(=O)O)CC[C@]3(C)C(=CC[C@@H]4[C@@]5(C)C[C@@H](C(=O)N6CCOCC6)[C@H](O)C(C)(C)[C@@H]5CC[C@]43C)[C@@H]2C1`, the inhibition at 16 µg/mL in experiment [1] and in experiment [2] was under 20% throughout. For the same compound, the MBIC50 in experiment [3] came out at 4 µg/mL.
On to `CNC(=N)[C@@H]1C[C@]2(C)[C@H]3CC=C4[C@@H]5CC(C)(C)CC[C@]5(C(=O)O)CC[C@@]4(C)[C@]3(C)CC[C@H]2C(C)(C)[C@H]1O`, for which the inhibition (in general, how much of the control response was suppressed) at 16 µg/mL in experiment [1] was under 20%; in experiment [2], 30%. In experiment [3], the MBIC50 entry is “>=32 ug ml-1”.
Compound `C[C@H]1[C@H](C)CC[C@]2(C(=O)O)CC[C@]3(C)C(=CC[C@@H]4[C@@]5(C)[C@H](O)[C@@H](O)[C@@H](O)[C@](C)(CO)[C@@H]5CC[C@]43C)[C@H]12` yielded an inhibition at 16 µg/mL in experiment [1] of 80%.
Regarding `CN1CCN=C1[C@@H]1C[C@]2(C)[C@H]3CC=C4[C@@H]5CC(C)(C)CC[C@]5(C(=O)O)CC[C@@]4(C)[C@]3(C)CC[C@H]2C(C)(C)[C@H]1O`, the inhibition at 16 µg/mL in experiment [1] is over 20%; in experiment [2], under 20%. Also, in experiment [3], the MBIC50 result was “>=32 ug ml-1”.
In the same order, the values of `CCN(C[C@@H]1C[C@]2(C)[C@H]3CC=C4[C@@H]5CC(C)(C)CC[C@]5(C(=O)O)CC[C@@]4(C)[C@]3(C)CC[C@H]2C(C)(C)[C@H]1O)C(C)=O` are under 20%, 30% and 4 µg/mL.
For the compound `CC(=O)N(C(C)=O)c1ncc2c(n1)C(C)(C)[C@@H]1CC[C@]3(C)[C@H](CC=C4[C@@H]5CC(C)(C)CC[C@]5(C(=O)O)CC[C@]43C)[C@@]1(C)C2`, the inhibition at 16 µg/mL is 90% in experiment [1] and 70% in experiment [2]. Also, in experiment [3], the MBIC50 amounted to 8 µg/mL.
`C[C@H]1[C@H](C)CC[C@]2(C(=O)O)CC[C@]3(C)C(=CC[C@@H]4[C@@]5(C)C[C@@H](O)[C@H](O)[C@@](C)(CO)[C@@H]5CC[C@]43C)[C@H]12` [ASIATIC ACID] came in with an inhibition at 16 µg/mL in experiment [1] of 70%.
For the compound `CN(C)C[C@@H]1C[C@]2(C)[C@H]3CC=C4[C@@H]5CC(C)(C)CC[C@]5(C(=O)O)CC[C@@]4(C)[C@]3(C)CC[C@H]2C(C)(C)[C@H]1O`, the inhibition at 16 µg/mL in experiment [1] is under 20%; in experiment [2] it was 70%. Besides, the MBIC50 entry in experiment [3] is “>=32 ug ml-1”.
For the compound `C[C@H]1[C@H](C)CC[C@]2(C(=O)O)CC[C@]3(C)C(=CC[C@@H]4[C@@]5(C)C[C@@H](O)[C@@H](O)[C@](C)(CO)[C@@H]5CC[C@]43C)[C@H]12`, the inhibition at 16 µg/mL in experiment [1] worked out at 90%.
On to `Cn1ccnc1[C@@H]1C[C@]2(C)[C@H]3CC=C4[C@@H]5CC(C)(C)CC[C@]5(C(=O)O)CC[C@@]4(C)[C@]3(C)CC[C@H]2C(C)(C)[C@H]1O`, for which the inhibition at 16 µg/mL was under 20% in experiment [1] and 80% in experiment [2]. In experiment [3], the MBIC50 result is given as “>=32 ug ml-1”.
Regarding `CCCN(C)C(=O)[C@@H]1C[C@]2(C)[C@H]3CC=C4[C@@H]5CC(C)(C)CC[C@]5(C(=O)O)CC[C@@]4(C)[C@]3(C)CC[C@H]2C(C)(C)[C@H]1O`, the inhibition at 16 µg/mL in experiment [1] was under 20%; in experiment [2] it was 50%. In addition, in experiment [3], the MBIC50 is 4 µg/mL.
`CC1(C)CC[C@]2(C(=O)O)CC[C@]3(C)C(=CC[C@@H]4[C@@]5(C)C[C@@H](C6=NCCCN6)[C@H](O)C(C)(C)[C@@H]5CC[C@]43C)[C@@H]2C1`: the results for the inhibition at 16 µg/mL in experiment [1] and in experiment [2] were under 20% and 60%, respectively. In experiment [3], this compound returned an MBIC50 of 4 µg/mL.
In the same order, the values of `CC1(C)CC[C@]2(C(=O)O)CC[C@]3(C)C(=CC[C@@H]4[C@@]5(C)C[C@@H](C(=O)NC6CC6)[C@H](O)C(C)(C)[C@@H]5CC[C@]43C)[C@@H]2C1` are under 20%, 70% and 4 µg/mL.
Turning to `C[C@H]1[C@H](C)CC[C@]2(C(=O)O)CC[C@]3(C)C(=CC[C@@H]4[C@@]5(C)C[C@@H](O)[C@H](O)[C@@](C)(CO)[C@@H]5[C@H](O)C[C@]43C)[C@H]12` [MADECASSIC ACID], the inhibition at 16 µg/mL in experiment [1] amounted to 90%.
Take `CN1C[C@@H]2C[C@]3(C)[C@H]4CC=C5[C@@H]6CC(C)(C)CC[C@]6(C(=O)O)CC[C@@]5(C)[C@]4(C)CC[C@H]3C(C)(C)[C@H]2OC1=O`: the inhibition at 16 µg/mL in experiment [1] and in experiment [2] was under 20% throughout. Also, the MBIC50 entry in experiment [3] was “>=32 ug ml-1”.
Regarding `CC1(C)CC[C@]2(C(=O)O)CC[C@]3(C)C(=CC[C@@H]4[C@@]5(C)Cc6c(O)nc(N)nc6C(C)(C)[C@@H]5CC[C@]43C)[C@@H]2C1`, the inhibition at 16 µg/mL in experiment [1] is 90%; in experiment [2] it was over 90%. Besides, the MBIC50 result in experiment [3] is recorded as “>=32 ug ml-1”.
In the same order, the values of `CC1(C)CC[C@]2(C(=O)O)CC[C@]3(C)C(=CC[C@@H]4[C@@]5(C)C[C@@H](c6ncc[nH]6)[C@H](O)C(C)(C)[C@@H]5CC[C@]43C)[C@@H]2C1` are under 20%, over 90% and 16 µg/mL.
On to `CC[C@H]1OC(=O)[C@H](C)[C@@H](O[C@H]2C[C@@](C)(OC)[C@@H](O)[C@H](C)O2)[C@H](C)[C@@H](O[C@@H]2O[C@H](C)C[C@H](N(C)C)[C@H]2O)[C@](C)(O)C[C@@H](C)CN(C)[C@H](C)[C@@H](O)[C@]1(C)O` [AZITHROMYCIN], for which the INH in experiment [4], in experiment [5] and in experiment [6] was over 16 µg/mL throughout.
As to `C[C@H]1[C@H](C)CC[C@]2(CO)CC[C@]3(C)C(=CC[C@@H]4[C@@]5(C)CC[C@H](O)C(C)(C)[C@@H]5CC[C@]43C)[C@H]12` [UVAOL], in experiment [1], the inhibition at 16 µg/mL was under 20%.
Same read-out and setting: next, `C[C@H]1[C@H](C)CC[C@]2(C(=O)O)CC[C@]3(C)C(=CC[C@@H]4[C@@]5(C)CC[C@H](O)C(C)(C)[C@@H]5CC[C@]43C)[C@H]12` [URSOLIC ACID]: over 90%; `C[C@H]1[C@H](C)CC[C@]2(C(=O)O)CC[C@]3(C)C(=CC[C@@H]4[C@@]5(C)C[C@@H](O)[C@@H](O)C(C)(C)[C@@H]5CC[C@]43C)[C@H]12` [PYGENIC ACID A]: over 90%.
`CC1(C)CC[C@]2(C(=O)O)CC[C@]3(C)C(=CC[C@@H]4[C@@]5(C)C[C@@H](C6=NCCO6)[C@H](O)C(C)(C)[C@@H]5CC[C@]43C)[C@@H]2C1`: the inhibition at 16 µg/mL in experiment [1] and in experiment [2] was under 20% throughout. Further, the MBIC50 in experiment [3] was 8 µg/mL.
Turning to `CN(C)C(=O)[C@@H]1C[C@]2(C)[C@H]3CC=C4[C@@H]5CC(C)(C)CC[C@]5(C(=O)O)CC[C@@]4(C)[C@]3(C)CC[C@H]2C(C)(C)[C@H]1O`, the inhibition at 16 µg/mL in experiment [1] and in experiment [2] was under 20% in each case. In experiment [3], the MBIC50 stood at 4 µg/mL.
Consider `CC1(C)CC[C@]2(C(=O)O)CC[C@]3(C)C(=CC[C@@H]4[C@@]5(C)C[C@@H](C6=NCCN6)[C@H](O)C(C)(C)[C@@H]5CC[C@]43C)[C@@H]2C1`, for which the inhibition at 16 µg/mL in experiment [1] is under 20%; in experiment [2] it was over 90%. Moreover, the MBIC50 result in experiment [3] is reported as “>=32 ug ml-1”.
As to `CC1(C)CC[C@]2(C(=O)O)CC[C@]3(C)C(=CC[C@@H]4[C@@]5(C)Cc6cnc(N)nc6C(C)(C)[C@@H]5CC[C@]43C)[C@@H]2C1`, the inhibition at 16 µg/mL is 80% in experiment [1] and 90% in experiment [2]. Further, the MBIC50 entry in experiment [3] is “>=32 ug ml-1”.
In the same order, the values of `CN(C)CCNC(=O)[C@@H]1C[C@]2(C)[C@H]3CC=C4[C@@H]5CC(C)(C)CC[C@]5(C(=O)O)CC[C@@]4(C)[C@]3(C)CC[C@H]2C(C)(C)[C@H]1O` are under 20%, 30% and 4 µg/mL.
As for `CNC(=O)[C@@H]1C[C@]2(C)[C@H]3CC=C4[C@@H]5CC(C)(C)CC[C@]5(C(=O)O)CC[C@@]4(C)[C@]3(C)CC[C@H]2C(C)(C)[C@H]1O`, the inhibition at 16 µg/mL in experiment [1] and in experiment [2] was under 20% throughout. This compound showed an MBIC50 in experiment [3] of 4 µg/mL.
Regarding `CC(C)CN(C)C[C@@H]1C[C@]2(C)[C@H]3CC=C4[C@@H]5CC(C)(C)CC[C@]5(C(=O)O)CC[C@@]4(C)[C@]3(C)CC[C@H]2C(C)(C)[C@H]1O`, the values for the inhibition at 16 µg/mL in experiment [1] and in experiment [2] were under 20% and 90%, respectively. The MBIC50 result in experiment [3] is reported as “>=32 ug ml-1”.
For `COC(=O)[C@]12CCC(C)(C)C[C@H]1C1=CC[C@@H]3[C@@]4(C)CC[C@H](O)C(C)(C)[C@@H]4CC[C@@]3(C)[C@]1(C)CC2` [METHYL OLEANOLATE], testing at 16 µg/mL in experiment [1] gave an inhibition of 30%.
For `CC(C)(O/N=C(\C(=O)N[C@@H]1C(=O)N2C(C(=O)[O-])=C(C[n+]3ccccc3)CS[C@H]12)c1csc(N)n1)C(=O)O` [CEFTAZIDIME], the INH in experiment [4] is 4 µg/mL; in experiment [7] it was 0.25 µg/mL; in experiment [5], over 8 µg/mL; in experiment [6], 0.5 µg/mL.
As to `C=C(C)[C@@H]1CC[C@]2(C)CC[C@]3(C)[C@H](CC[C@@H]4[C@@]5(C)CC[C@H](O)C(C)(C)[C@@H]5CC[C@]43C)[C@@H]12` [LUPEOL], the inhibition at 16 µg/mL in experiment [1] is under 20%.
Take `C=C(C)[C@@H]1CC[C@]2(C(=O)O)CC[C@]3(C)[C@H](CC[C@@H]4[C@@]5(C)CC[C@H](O)C(C)(C)[C@@H]5CC[C@]43C)[C@@H]12` [BETULINIC ACID]: the inhibition at 16 µg/mL in experiment [1] is 80%.
